Data: patent US11584744B2 (UNIVERSITY OF WASHINGTON, priority 2017, dated 2023)
Converted amounts (≈) assume the structure as drawn. Like-named read-outs stand apart in the source and are kept apart here.

Tests used:
S. aureus (ATCC 29213) [1] = type: cell-based, Staphylococcus aureus; conditions: 8× the MIC
Protocol: Resistance frequency rates determination: The spontaneous resistance frequency rates to test compounds was determined according to published methods. Agar selection plates were made by adding compound from DMSO stocks into molten Mueller Hinton agar in a 55° C. water bath. […] The final DMSO concentration was <0.1% per plate. Plates were dried in a sterile hood for 30 minutes prior to overnight storage at 4° C., and pre-warmed in the 37° C. incubator for 1 hour prior to assay.
A fresh overnight culture was diluted 1:50 in MHB and grown at 37° C. with shaking (150 rpm) until reaching an OD600 of 0.4 correlating to ˜2×10^9 CFUs/mL. Approximately 3 mL for a total of 6*10^9 CFUs were distributed onto 4 plates for each compound. Plates were incubated at 37° C. for 72 h prior to counting of colonies. The starting inoculum was also serially diluted and plated to quantify initial bacterial load. The resistance frequency was determined as the number of compound-resistant colonies divided by the total colonies plated.
Resistance frequency rates: The propensity for S. aureus to develop resistance to MetRS inhibitors was also studied (Table 6).

S. aureus = experiment: Serum shift assays (MIC with and without 50% human serum); type: cell-based, Staphylococcus aureus; conditions: Staphylococcus aureus
Protocol: Serum shift assays: To assess the role of protein binding on compound susceptibility, MIC determinations were performed in triplicate in the presence and absence of 50% human serum. Serial threefold dilutions of 2× compound were generated in MHB and aliquoted onto 96 well plates with a DMSO limit of 0.5%. Bacteria were adjusted to 1*10^8 CFUs/mL in MHB, then further diluted 1:100 in MHB and 100% heat deactivated filter sterilized pooled human serum. Fifty microliters were added to each well of the corresponding plates, and the plates were incubated at 37° C. for ˜20 h. The lowest concentration causing ≥90% growth inhibition was recorded as the MIC.

S. aureus (ATCC 29213) [2] = experiment: MBC determinations (with MIC); type: cell-based; conditions: Staphylococcus aureus, ATCC29213, S. aureus (ATCC 29213)
Protocol: Maximum DMSO concentrations were 0.5%. […] Each experiment's inoculum was serially diluted and plated on TSA to count competent cells. Cultures were incubated at 37° C. for at least 20 h and plated on TSA for CFU determination.
MIC/MBC: Measurements of minimum bactericidal concentrations (MBCs) were done with the S. aureus strain ATCC 29213 (Table 5).

[3] = test system: E. faecium VRE (ATCC 51559); experiment: MIC susceptibility testing; type: cell-based, Enterococcus faecium; conditions: Enterococcus faecium
Outline: (§1)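 CLSI broth microdilution with two-fold compound dilutions, in triplicate; cells added in medium at 1×10^6 CFUs/mL, DMSO ≤0.5%. Media: MHB for S. aureus, CA-MHB for E. coli and E. faecium, CA-MHB plus 3% laked horse blood for S. pyogenes (5% CO2).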

[4] = test system: S. aureus MSSA (ATCC 29213); experiment: MIC susceptibility testing; type: cell-based, Staphylococcus aureus; conditions: Staphylococcus aureus
[5] = biological target: recombinant S. aureus MetRS enzyme (Staphylococcus aureus, UniProt A0A0H2XID2); experiment: Inhibition of SaMetRS, ATP depletion assay; type: biochemical
recombinant S. aureus MetRS enzyme, sequence (A0A0H2XID2 2-657): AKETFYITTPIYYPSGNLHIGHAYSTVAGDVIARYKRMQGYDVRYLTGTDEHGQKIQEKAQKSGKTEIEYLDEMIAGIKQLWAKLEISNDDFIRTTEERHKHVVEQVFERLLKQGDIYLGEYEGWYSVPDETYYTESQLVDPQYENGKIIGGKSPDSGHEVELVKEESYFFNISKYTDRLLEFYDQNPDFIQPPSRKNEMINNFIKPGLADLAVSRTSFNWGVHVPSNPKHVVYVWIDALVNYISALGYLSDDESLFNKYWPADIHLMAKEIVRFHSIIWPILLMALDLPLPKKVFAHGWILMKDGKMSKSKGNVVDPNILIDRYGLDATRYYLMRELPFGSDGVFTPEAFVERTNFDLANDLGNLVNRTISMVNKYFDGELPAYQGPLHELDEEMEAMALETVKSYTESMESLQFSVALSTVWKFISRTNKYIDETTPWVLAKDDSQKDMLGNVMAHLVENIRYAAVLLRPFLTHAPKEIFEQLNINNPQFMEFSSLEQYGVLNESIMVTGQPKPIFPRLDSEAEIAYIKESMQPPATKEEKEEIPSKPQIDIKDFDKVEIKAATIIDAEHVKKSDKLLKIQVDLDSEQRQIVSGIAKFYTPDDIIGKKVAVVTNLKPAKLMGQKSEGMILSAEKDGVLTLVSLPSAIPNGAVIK
Outline: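 IC50 values come from sigmoidal fits of percent inhibition, based on ATP left after 120 min as measured by Kinase-Glo. Substrates were 20 μM L-methionine and 150 nM ATP, added after compounds sat 15 min at room temperature with 25 nM His-tagged SaMetRS, bulk E. coli tRNA, pH 7.9 HEPES buffer and 2% DMSO.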

[6] = test system: S. aureus MRSA (ATCC 43300); experiment: MIC susceptibility testing; type: cell-based; conditions: Staphylococcus aureus; read-out: S. aureus MRSA (ATCC 43300) MIC
Source text: (§2) Media and culture conditions. Mueller Hinton broth (MHB), cation adjusted Mueller Hinton broth (CA-MHB), and Brain Heart Infusion broth (BHI) were purchased from Becton Dickinson (Franklin Lakes, N.J.). Tryptic soy agar (TSA) plates, TSA with 5% sheep blood plates, and CA-MHB with 3% laked horse blood were purchased from Remel (San Diego, Calif.). MHB was used to assay all Staphylococcus aureus strains. CA-MHB was used for Staphylococcus epidermidis, Enterococcus faecalis, Enterococcus faecium, Escherichia coli, and Pseudomonas aeruginosa. CA-MHB supplemented with 3% laked horse blood was used for Streptococcus pneumoniae and Streptococcus pyogenes. Staphylococcus, Enterococcus, Escherichia, and Pseudomonas strains were cultured at 37° C. with ambient air. Streptococcus strains were cultured in 37° C. with 5% CO2. Separate conditions for radiolabeled precursor uptake assays are described below.
(§3) Susceptibility testing: Minimum inhibitory concentration (MIC) determinations were performed in triplicate in 96-well round bottom microtiter plates (Corning, Corning N.Y.) as described by the Clinical and Laboratory Standards Institute (CLSI). Serial two-fold dilutions of compounds were added to plates in 50 μL volumes. An additional 50 μL of media containing bacterial cells (1×10^6 CFUs/mL) was then added to each well. Maximum DMSO concentrations were 0.5%. Plates were incubated at 37° C. for at least 18 h before reading the susceptibility result by optical absorbance (OD600) using a BioTek ELx800. The lowest concentration causing ≥90% growth inhibition compared to the untreated control was recorded as the MIC (and also corresponded to the visual MIC). MICs were measured at least twice and the higher value (if different) was recorded herein.

E. faecalis (ATCC 29212) = experiment: MIC susceptibility testing; type: cell-based; conditions: Enterococcus faecalis, ATCC29212; read-out: E. faecalis (ATCC 29212) MIC
Source text: as §2, §3

E. faecium (ATCC 19434) = experiment: MIC susceptibility testing; type: cell-based; conditions: Enterococcus faecium, ATCC19434; read-out: E. faecium (ATCC 19434) MIC
Source text: as §2, §3

[7] = Cytotoxicity testing on mammalian cells (AlamarBlue, 48 hours); type: cell-based; conditions: human
Protocol: Cytotoxicity testing on mammalian cells: Compounds were assayed for cytotoxicity against CRL-8155 (human lymphoblasts) and HepG2 cells (human hepatocellular carcinoma). Cells were exposed to serial dilutions of compounds for 48 hours and toxicity was quantified using AlamarBlue (ThermoFisher Scientific, Waltham, Mass.). Assays were performed in quadruplicate and EC50 values were calculated with non-linear regression methods using software by the Collaborative Drug Database (Burlingame, Calif. www.collaborativedrug.com)

[8] = test system: G. lamblia (ATCC GL50803); experiment: G. lamblia growth inhibition; type: cell-based; conditions: Giardia duodenalis, read-out: (K) G. lamblia (ATCC GL50803) EC50
MetRS (T. brucei) = biological target: T1, MetRS (T. brucei) (Trypanosoma brucei brucei, UniProt Q38C91); experiment: MetRS (T. brucei) enzyme inhibition; type: biochemical
T1 sequence (Q38C91 1-773): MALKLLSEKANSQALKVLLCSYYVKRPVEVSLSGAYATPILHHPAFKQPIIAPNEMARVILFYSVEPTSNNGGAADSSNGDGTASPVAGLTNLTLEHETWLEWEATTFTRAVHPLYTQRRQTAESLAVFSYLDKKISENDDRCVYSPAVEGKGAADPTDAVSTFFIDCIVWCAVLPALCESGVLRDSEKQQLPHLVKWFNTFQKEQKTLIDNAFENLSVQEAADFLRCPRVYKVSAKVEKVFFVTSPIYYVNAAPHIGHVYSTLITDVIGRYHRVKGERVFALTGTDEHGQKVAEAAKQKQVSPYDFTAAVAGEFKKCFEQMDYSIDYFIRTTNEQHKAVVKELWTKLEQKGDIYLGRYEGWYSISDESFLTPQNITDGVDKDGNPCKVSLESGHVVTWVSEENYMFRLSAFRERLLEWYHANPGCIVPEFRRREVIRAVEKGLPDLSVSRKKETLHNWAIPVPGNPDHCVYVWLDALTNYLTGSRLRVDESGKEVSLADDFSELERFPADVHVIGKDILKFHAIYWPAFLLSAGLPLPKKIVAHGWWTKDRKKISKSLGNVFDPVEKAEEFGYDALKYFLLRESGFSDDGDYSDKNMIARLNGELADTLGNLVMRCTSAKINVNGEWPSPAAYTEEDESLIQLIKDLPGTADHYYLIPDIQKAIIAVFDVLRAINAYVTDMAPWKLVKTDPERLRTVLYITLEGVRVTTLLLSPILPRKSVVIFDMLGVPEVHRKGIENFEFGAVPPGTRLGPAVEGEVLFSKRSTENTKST

MetRS (C. parvum) = MetRS (C. parvum) (Cryptosporidium parvum, UniProt Q5CVN0); experiment: MetRS (C. parvum) enzyme inhibition; type: biochemical; conditions: read-out: (C) MetRS (C. parvum) IC50
MetRS (C. parvum), sequence (Q5CVN0 entry or part of it): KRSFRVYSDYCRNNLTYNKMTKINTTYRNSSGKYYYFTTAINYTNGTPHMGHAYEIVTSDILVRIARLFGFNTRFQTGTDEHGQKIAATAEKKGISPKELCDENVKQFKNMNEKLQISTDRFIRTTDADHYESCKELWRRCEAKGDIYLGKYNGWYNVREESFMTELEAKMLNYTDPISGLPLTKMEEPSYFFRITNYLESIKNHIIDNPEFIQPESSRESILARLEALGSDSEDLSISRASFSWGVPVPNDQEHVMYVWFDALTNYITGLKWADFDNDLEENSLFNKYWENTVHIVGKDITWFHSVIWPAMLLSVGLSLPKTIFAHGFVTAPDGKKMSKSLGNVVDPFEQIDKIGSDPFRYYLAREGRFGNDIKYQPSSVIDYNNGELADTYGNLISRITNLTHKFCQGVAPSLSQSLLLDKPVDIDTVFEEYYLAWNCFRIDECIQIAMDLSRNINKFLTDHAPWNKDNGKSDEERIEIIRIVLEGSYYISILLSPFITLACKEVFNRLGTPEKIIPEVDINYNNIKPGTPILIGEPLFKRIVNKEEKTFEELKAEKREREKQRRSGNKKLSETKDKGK

[9] = test system: S. aureus MRSA (ATCC 33591); experiment: MIC susceptibility testing; type: cell-based, Staphylococcus aureus; conditions: MRSA ATCC33591; for MIC: Staphylococcus aureus, read-out: (G) MRSA (ATCC33591) MIC
Outline: as §1

T. cruzi = T. cruzi growth inhibition; type: cell-based, Trypanosoma cruzi; conditions: read-out: (E) T. cruzi EC50
C. parvum = C. parvum growth inhibition; type: cell-based, Cryptosporidium parvum; conditions: read-out: (J) C. parvum EC50
T. brucei = T. brucei growth inhibition; type: cell-based, Trypanosoma brucei; conditions: read-out: (D) T. brucei EC50
[10] = E. faecium ATCC 51559, read-out: (I) E. faecium (ATCC 51559) MIC
[11] = S. aureus ATCC 29213, read-out: (F) S. aureus (ATCC 29213) MIC
[12] = read-out: (B) MetRS (S. aureus) IC50

Row | Structure (SMILES) | EC50 [8] [nM] | IC50 (MetRS (T. brucei)) [nM] | IC50 (MetRS (C. parvum)) [nM] | MIC [3, 10] [µg/mL] | MIC [9] [µg/mL] | MIC [4, 11] [µg/mL] | IC50 [5, 12] [nM] | EC50 (T. cruzi; Trypanosoma cruzi) [nM] | EC50 (C. parvum; Cryptosporidium parvum) [nM] | EC50 (C. parvum) [nM] | EC50 (T. brucei; Trypanosoma brucei) [nM] | other results
1 | CO[C@@H]1[C@@H](OC(N)=O)[C@@H](O)[C@H](Oc2ccc3c(O)c(NC(=O)c4ccc(O)c(CC=C(C)C)c4)c(=O)oc3c2C)OC1(C)C [NOV, novobiocin] |  |  |  |  |  |  |  |  |  |  |  | Resistance frequency (Expt. 2) (S. aureus (ATCC 29213) [1]; 72 h): 1.58 × 10^−8; Resistance frequency (average or greater #) (S. aureus (ATCC 29213) [1]; two independent experiments): 1.58 × 10^−8; MIC (S. aureus; 50% human serum, read-out: Avg MIC ± SEM (+50% serum)): 12.9 ± 1.97 µg/mL; MIC (S. aureus; no serum, read-out: Avg MIC ± SEM (no serum)): 0.081 ± 0.02 µg/mL; MIC (S. aureus (ATCC 29213) [2]; MBC experiment (Table 5), read-out: MIC): 0.156 µg/mL (≈ 0.255 µM); MBC (S. aureus (ATCC 29213) [2]; concentration killing 99.9% of inoculum, read-out: MBC): 5 µg/mL (≈ 8.16 µM)
2 | Oc1cc(NCCCNCc2cc(Cl)cc(Cl)c2)nc2ccccc12 [Compound 1312, 2-((3-((3,5-dichlorobenzyl)amino)propyl)amino)quinolin-4(1H)-one] |  |  |  |  |  |  |  |  |  |  |  | MIC ([3]; read-out: E. faecium VRE (ATCC 51559) MIC): 0.156 µg/mL (≈ 0.415 µM); MIC ([4]; 18 h, read-out: S. aureus MSSA (ATCC 29213) MIC): 2.5 µg/mL (≈ 6.64 µM); IC50 ([5]; recombinant enzyme, lower limit of detection 0.025 μM, read-out: MetRS S. aureus (enzyme) IC50): < 25 nM; MIC [6]: 5 µg/mL (≈ 13.3 µM); MIC (E. faecalis (ATCC 29212)): 0.313 µg/mL (≈ 0.832 µM); MIC (E. faecium (ATCC 19434)): 0.156 µg/mL (≈ 0.415 µM); CC50 at 48 h ([7]; CRL-8155 cells (human lymphoblasts), read-out: Mamm. cells (CRL8155) CC50): > 7.5 µg/mL; CC50 at 48 h ([7]; HepG2 cells (human hepatocellular carcinoma), read-out: Mamm. cells (HepG2) CC50): > 7.5 µg/mL
3 | COc1ccc(-c2cccc3nc(Cc4nc5nc(Cl)ccc5[nH]4)cn23)c(Cl)c1 [Compound 2119, 2-({5-chloro-1H-imidazo[4,5-b]pyridin-2-yl}methyl)-5-(2-chloro-4-methoxyphenyl)imidazo[1,2-a]pyridine] | 60 | < 40 | < 40 | 0.727 (≈ 1.71 µM) | 1.04 (≈ 2.45 µM) | 0.285 (≈ 0.672 µM) | < 25 | 196 | 480 | 633 | 17.9 | EC50 (T. brucei): 29.3 nM
4 | CCn1c(Cc2ccc(Cl)cc2Cl)cn(Cc2nc3ccc(Cl)nc3[nH]2)c1=O [Compound 2067, 1-({5-chloro-1H-imidazo[4,5-b]pyridin-2-yl}methyl)-4-[(2,4-dichlorophenyl)methyl]-3-ethyl-2,3-dihydro-1H-imidazol-2-one] | 670 | < 40 | < 40 | > 2 | 1.35 (≈ 3.09 µM) |  | < 25 | 16.7 |  |  |  | (G) MRSA (ATCC33591) MIC [9]: 1.16 µg/mL; EC50 (T. cruzi): 32.3 nM
5 | COc1ccc(-c2cccc3nc(Cc4nc5nc(F)ccc5[nH]4)cn23)c(Cl)c1 [Compound 2122, 5-(2-chloro-4-methoxyphenyl)-2-({5-fluoro-1H-imidazo[4,5-b]pyridin-2-yl}methyl)imidazo[1,2-a]pyridine] | 220 | < 40 | < 40 | 0.263 (≈ 0.645 µM) | 0.909 (≈ 2.23 µM) | 0.419 (≈ 1.03 µM) | < 25 | 703 | 976 | 597 | 58.5 | 
